Assay results as given in article PMC12340957, “Interactions between Lipopolysaccharide and Peptide Bacteriocin BacSp222 Influence Their Biological Activities” (ACS Infectious Diseases, 2025).
Ends that are not written are not given here. * marks the point of attachment. For = O=C*

Columns and labels:
[1] = system: proenzyme Factor C from amebocyte lysate; experiment: Residual LPS activity, amebocyte lysate test (Pierce Chromogenic Endotoxin Quant Kit); type: biochemical; conditions: 4 μg BacSp222 preincubated with 3 pg LPS O111:B4 standard, 15 min, 37 °C, 60 μL PBS; 405 nm; mean n = 3
Experimental: The separate and independent assay used to determine the reduction of the LPS biological potential after incubation with BacSp222 was a test. Briefly, this approach utilizes the ability of endotoxin to activate a proenzyme Factor C from amebocyte lysate and allows for spectrophotometric measurement of the released active enzyme using a chromogenic synthetic peptide substrate. Due to high specificity and sensitivity, this assay is widely used to detect trace amounts of LPS. As presented in Figure , preincubation of LPS with a large excess of BacSp222 reduced LPS activity by ca. 50%.
The residual biological activity of LPS after preincubation with BacSp222 was evaluated by using a commercial assay kit. The reaction was performed for 4 μg of BacSp222, which was preincubated with 3 pg of LPS O111:B4 standard for 15 min at 37 °C in a final volume of 60 μL of PBS without Ca^2+ and Mg^2+. Simultaneously and independently, the same quantity of BacSp222 and LPS as above was preincubated separately as controls. After preincubation, the residual biological activity of endotoxin in all samples was determined using a spectrophotometric Pierce Chromogenic Endotoxin Quant Kit (Thermo, Waltham, MA, USA). The absorbance was measured at 405 nm using a microplate reader Synergy H1 Hybrid plate reader controlled by Gene5 version 2.00.18 software (BIOTEK Instruments, Winooski, VT, USA).

hemolymph phenoloxidase = experiment: Hemolymph phenoloxidase (PO) activation in larvae; type: in vivo, greater wax moth; conditions: for PO activity after BacSp222 alone: 5 μL injection
Experimental: The experiments were based on a previously published protocol. The greater wax moth was reared in the dark on honeybee nest debris at 28 °C and 70% humidity. Last instar larvae were used for the experiments. To test the activation of the phenoloxidase (PO) system by LPS, larvae were divided into groups of 10 insects. One group was injected with PBS buffer without Ca^2+ and Mg^2+, the other one with 1 μg of LPS O55:B5 (IEC) diluted in PBS, and the next one with the mixture of 1 μg of LPS and BacSp222 at concentrations 3, 6, or 30 μM. The last group was treated with the bacteriocin alone at the same concentrations. Before injection, all prepared solutions were preincubated for 30 min at 30 °C for possible complex formation, while the puncture surface of each larva was disinfected with 70% ethanol. Injection was done in the last but one proleg by a Hamilton syringe at a volume of 5 μL. After injection, the larvae were placed in Petri dishes on sterile filter paper. Bleeding larvae were excluded from the experiment. […]
The assay was performed similarly to the previous papers. , The hemolymph was diluted 5 times in apyrogenic water, and 2 μL of this dilution was added to 18 μL of buffer A (50 mM Tris–HCl pH 7.4, 150 mM NaCl, 5 mM CaCl2) in a 96-well plate. After 20 min of preincubation at room temperature, 180 μL of a 2 mM solution of 3,4-dihydroxy- L -phenylalanine (L-DOPA) in buffer B (50 mM Na2HPO4, 50 mM NaH2PO4; pH 6.5) was added, and then, the absorbance at 490 nm was measured immediately (time 0) at the indicated time-points. […]
All experiments were conducted three times independently, except for the DLS and ITC measurements, which were performed once and twice, respectively. […] For experiments concerning measurements of TNF, NO, cellular metabolic activity, TLRs activation, and LAL assay, the statistical significance of differences between the particular result and control was calculated using a two-way ANOVA with Tukey’s multiple comparison test as a posthoc test and shown in figures as asterisks *, **, or ***, indicating p < 0.05, p < 0.01, and p < 0.001, respectively. […]

TLR2/TLR6 heterodimer = conditions: cited from earlier work
Source text: A good example of such a multifunctional and immunomodulatory bacteriocin is the peptide BacSp222, produced by an opportunistic canine pathogen, strain 222. BacSp222 is a 50 amino acid long linear peptide encoded on a plasmid and is produced without a leader sequence, retaining a formylated N-terminal methionine.

FPR1 = system: FPR1; parameters: method as in number not given; conditions: ref number not given; cited from earlier work

For “For-MAGLLRFLLSKGRALYNWAKSHVGKVWEWLKSGATYEQIKEWIENALGWR [BacSp222]”, the “reduction of LPS activity” value [1] was “ca. 50%”, the “PO activity after BacSp222 alone” value (hemolymph phenoloxidase; 3 μM BacSp222 alone (printed "bacteriocin alone")) was “PO activity at a similar level as the injection of PBS buffer” and the “inhibition of LPS-induced PO activation” value (hemolymph phenoloxidase; 3 μM BacSp222 preincubated (30 min, 30 °C) and coinjected with 1 μg LPS O55:B5 (IEC), n = 3, printed "inhibited ... to about 50%") was “about 50%”. The “PO activity after BacSp222 alone” value (hemolymph phenoloxidase; 6 μM BacSp222 alone) was “induced PO activity”, the “affinity for TLR2/TLR6 heterodimer vs synthetic ligands” value (TLR2/TLR6 heterodimer; kinetic studies, vs ligands based on lipoteichoic acids or lipopeptides, ref number not given) was “lower affinity for the TLR2/TLR6 heterodimer than synthetic ligands” and the “recognition by TLR2/TLR6” value (TLR2/TLR6 heterodimer; ref our recent studies (ref 15)) was “recognized by the TLR2/TLR6 receptor heterodimer”. For the same substance, the “activation of FPR1” value (FPR1) was “cannot activate”.
